Test results published in patent US20090255440A1, “Benzothioxanthene dyes with improved application and toxicological properties” (Clariant International Ltd., priority 2008, published 2009).

Assays:
[1] = LLNA test for skin sensitization (OECD Guideline 429); assay type: in vivo; conditions: OECD Guideline 429, suitable vehicle, for example acetone:olive oil (4+1)
Description: We further submitted the same samples to a LLNA screening, in order to assess the potential skin sensitization properties of the product.
The Local Lymph Node Assay (LLNA) is an alternative to the guinea pig sensitization test which is employed by the pharmaceutical, chemical, consumer product and cosmetic industries to identify and characterize substances with immunotoxic properties.
Solvent Orange 63 as prepared above was subjected to LLNA test for skin sensitization, according to OECD Guideline 429 in suitable vehicle, for example acetone:olive oil (4+1).

[2] = tested on: Salmonella typhimurium Strain TA98; assay: Ames test for mutagenity (OECD 471); assay type: cell-based
Description: Due to the availability of different grades of Solvent Orange 63 for the corrosion tests, we decided to submit them all to an Ames test, one of several genotoxicity assays for the assessment of product safety.
The Ames test is a screening for the mutagenic effect of substances on microorganisms, cells and tissue cultures and therefore their potential carcinogenic effect. This relies on the observation that the most common cause of cancer is somatic mutations brought about by DNA damage. Chemicals that damage bacterial DNA, and induce mutations, are therefore likely to cause mutations in mammalian cells. Assay is done using bacteria, which gives fast and relatively cheap results and avoids the controversial tests on animals.
The strains used are among those recommended by OECD 471: Salmonella typhimurium and Escherichia coli.
Solvent Orange 63 as prepared above was subjected to Ames test for mutagenity. The strains used are among those recommended by OECD 471: Salmonella typhimurium and E. coli.

[3] = in the presence of S9 mix (metabolic activation)

| SMILES | skin sensitization (LLNA) [1] | mutagenic to Salmonella typhimurium Strain TA98 [2, 3] | mutagenic to Salmonella typhimurium Strain TA98 ([2]; with or without liver microsomal activation (S9 mix)) |
| --- | --- | --- | --- |
| O=c1c2ccccc2c2ccc3sc4ccccc4c4ccc1c2c34 [Solvent Orange 63 from Sample C, C.I. Solvent Orange 63] | skin sensitizers | not mutagenic | – |
| O=c1c2ccccc2c2ccc3sc4ccccc4c4ccc1c2c34 [Solvent Orange 63 from Sample D, C.I. Solvent Orange 63] | skin sensitizers | – | mutagenic |
| O=c1c2ccccc2c2ccc3sc4ccccc4c4ccc1c2c34 [Solvent Orange 63 from Sample B, C.I. Solvent Orange 63] | not skin sensitizers | not mutagenic | – |
| O=c1c2ccccc2c2ccc3sc4ccccc4c4ccc1c2c34 [Solvent Orange 63 from Sample A, C.I. Solvent Orange 63] | not skin sensitizers | not mutagenic | – |
